Assay results taken from patent US10221163B2 (priority 2015, dated 2019).
Where two headings read alike, the source gives them in different places.

What was measured:
IMP-1 = IMP-1 (Serratia marcescens, UniProt P52699); experiment: biochemical; format: biochemical; conditions: CCF2-FA substrate, 2 pM enzyme, 2 hours at 25° C.
In short: (§1)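 Test compound, enzyme and the FRET cephalosporin substrate CCF2-FA are incubated together for 2 hours at 25° C. Cleavage is followed by fluorescence, and IC50 values are derived from semi-logarithmic inhibition curves fitted with a 4-parameter model.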

NDM-1 = NDM-1 (Klebsiella pneumoniae, UniProt C7C422); experiment: biochemical; format: biochemical; conditions: fluorescence assay, CCF2-FA substrate, 1 pM enzyme, 2 hours at 25° C.; read-out: NDM-1 IC50
NDM-1, sequence (C7C422 whole entry, looked up, species assumed): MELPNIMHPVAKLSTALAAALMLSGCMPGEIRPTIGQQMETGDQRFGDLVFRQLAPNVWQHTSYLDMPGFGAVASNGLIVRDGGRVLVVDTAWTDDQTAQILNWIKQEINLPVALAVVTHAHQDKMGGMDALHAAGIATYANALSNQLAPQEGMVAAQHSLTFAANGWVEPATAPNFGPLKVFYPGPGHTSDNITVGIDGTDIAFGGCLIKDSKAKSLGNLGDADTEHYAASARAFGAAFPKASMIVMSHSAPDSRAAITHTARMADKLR
In short: as §1

VIM-1 = VIM-1 (Pseudomonas aeruginosa (strain ATCC 15692 / DSM 22644 / CIP 104116 / JCM 14847 / LMG 12228 / 1C / PRS 101 / PAO1), UniProt A0A0F7KYQ8); experiment: biochemical; conditions: CCF2-FA substrate, 30 pM enzyme, 2 hours at 25° C.
In short: as §1

[1] = system: Escherichia coli expressing NDM-1 (CLB30005, CLB30016); format: cell-based; conditions: with imipenem 1 μg/ml; for Escherichia coli expressing NDM-1 (CLB30016) MITC95: 95% inhibition of bacterial growth; for Escherichia coli MITC95: NDM-1 strain, 95% inhibition of growth
In short: (§2)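 Imipenem 1 μg/ml + inhibitor; MBL-expressing clinical strains in 1.1×CAMHB, inoculum from saline suspension diluted 1:100; 35° C, 22–24 h; absorbance read-out.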

[2] = system: Klebsiella pneumoniae expressing VIM-1 (IHMA599644); format: cell-based; conditions: for Klebsiella pneumoniae expressing VIM-1 (IHMA599644) MITC95: with imipenem 1 μg/ml, 95% inhibition of bacterial growth; for Klebsiella pneumoniae MITC95: VIM-1 strain IHMA599644, with imipenem 1 μg/ml, 95% inhibition of growth
In short: as §2

[3] = system: Serratia marcescens expressing IMP-1 (CL5741); format: cell-based; conditions: for Serratia marcescens expressing IMP-1 (CL5741) MITC95: with imipenem 1 μg/ml, 95% inhibition of bacterial growth; for Serratia marcescens MITC95: IMP-1 strain CL5741, with imipenem 1 μg/ml, 95% inhibition of growth
In short: as §2

[4] = system: Pseudomonas aeruginosa efflux+ (MB9798), IMP-1; format: cell-based; set-up: Concentration of metallo-β-lactamase inhibitor which restores susceptibility of efflux + (MB9798) strain to imipenem: unit not given here; conditions: C, D serine β-lactamase inhibitor closely related to relebactam; for P. aeruginosa expressing IMP-1, efflux + (MB9798) MITC95: concentration restoring susceptibility to imipenem at 2 μg/mL in the presence of a class A; for Concentration of metallo-β-lactamase inhibitor which restores susceptibility of efflux + (MB9798) strain to imipenem: imipenem at 2 μg/mL, in the presence of a class A
In short: (§3)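 Steps: add fixed imipenem and/or ceftazidime (usually CLSI breakpoint) and fixed AmpC-directed class A/C inhibitor to microbroth MIC wells; titrate MBL inhibitor; record concentration regaining susceptibility for each PAO1-derived strain; divide efflux+ by efflux− value.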

[5] = system: Pseudomonas aeruginosa efflux− (MB9799), IMP-1; format: cell-based; conditions: C, D serine β-lactamase inhibitor closely related to relebactam; for P. aeruginosa expressing IMP-1, efflux − (MB9799) MITC95: concentration restoring susceptibility to imipenem at 2 μg/mL in the presence of a class A; for Concentration of metallo-β-lactamase inhibitor which restores susceptibility of efflux − (MB9799) strain to imipenem: imipenem at 2 μg/mL, in the presence of a class A
In short: as §3

[6] = system: Pseudomonas aeruginosa MB9798 vs MB9799
In short: as §3

[7] = ratio MITC95 PA_9798/MITC95 PA_9799
[8] = fluorescence assay, read-out: IMP-1 IC50
[9] = fluorescence assay, read-out: VIM-1 IC50
[10] = fold difference between efflux+ (MB9798) and efflux− (MB9799) strains, imipenem at 2 μg/mL

IMP-1, sequence (P52699 whole entry, looked up, species assumed): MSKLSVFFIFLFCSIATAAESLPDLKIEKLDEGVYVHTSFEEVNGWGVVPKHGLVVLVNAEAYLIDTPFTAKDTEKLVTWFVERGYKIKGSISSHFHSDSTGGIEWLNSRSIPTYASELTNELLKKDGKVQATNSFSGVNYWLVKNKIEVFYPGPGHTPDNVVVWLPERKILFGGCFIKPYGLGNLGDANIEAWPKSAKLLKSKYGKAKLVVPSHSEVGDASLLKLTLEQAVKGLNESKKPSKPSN

Row | Compound | IC50 (IMP-1; IMP-1 IC50, fluorescence assay) [nM] | IC50 (NDM-1) [nM] | IC50 (VIM-1; VIM-1 IC50, fluorescence assay) [nM] | Escherichia coli expressing NDM-1 (CLB30016) MITC95 [1] [µM] | Klebsiella pneumoniae expressing VIM-1 (IHMA599644) MITC95 [2] [µM] | Serratia marcescens expressing IMP-1 (CL5741) MITC95 [3] [µM] | P. aeruginosa expressing IMP-1, efflux + (MB9798) MITC95 [4] [µM] | P. aeruginosa expressing IMP-1, efflux − (MB9799) MITC95 [5] [µM] | Efflux ratio [6, 7] | IC50 (IMP-1; [8]) [nM] | Escherichia coli MITC95 [1] [µM] | Klebsiella pneumoniae MITC95 [2] [µM] | Serratia marcescens MITC95 [3] [µM] | IC50 (VIM-1; [9]) [nM] | Concentration of metallo-β-lactamase inhibitor which restores susceptibility of efflux + (MB9798) strain to imipenem [4] | Concentration of metallo-β-lactamase inhibitor which restores susceptibility of efflux − (MB9799) strain to imipenem [5] | Efflux ratio [6, 10]
1 | Nc1nc2c(-c3ccc(S(=O)(=O)NC[C@H]4CCNC4)c(S(N)(=O)=O)c3-c3nnn[nH]3)cccc2s1 [Example 73, 4-(2-amino-1,3-benzothiazol-4-yl)-N^1-[(3S)-pyrrolidin-3-ylmethyl]-3-(1H-tetrazol-5-yl)benzene-1,2-disulfonamide] | 0.16 | 0.0332 | 0.125 | 1.563 | 3.125 | 1.563 | 0.7813 | 1.563 | 0.50 |  |  |  |  |  |  |  | 
2 | NC[C@@H](N)CNS(=O)(=O)c1ccc(-c2cnc3cc[nH]c3c2)c(-c2nn[nH]n2)c1S(N)(=O)=O [Example 378, (R)-N1-(2,3-diaminopropyl)-4-(1H-pyrrolo[3,2-b]pyridin-6-yl)-3-(2H-tetrazol-5-yl)benzene-1,2-disulfonamide] |  | 0.0511 | 0.0985 |  |  |  | 3.125 | 1.563 | 2.00 | 0.354 | 0.7813 | 3.125 | 1.563 |  |  |  | 
3 | NS(=O)(=O)c1c(S(=O)(=O)N[C@@H]2CCNC2)ccc(-c2cccc(-c3nc[nH]n3)c2)c1-c1nn[nH]n1 [Example 225, (R)-N4-(pyrrolidin-3-yl)-2-(2H-tetrazol-5-yl)-3′-(1H-1,2,4-triazol-3-yl)-[1,1′-biphenyl]-3,4-disulfonamide] |  | 0.0256 |  | 3.125 | 3.125 | 1.563 | 1.563 | 1.563 | 1.00 | 0.11 |  |  |  | 0.0561 |  |  | 
4 | Nc1ncccc1-c1ccc(S(=O)(=O)N[C@@H]2CCNC2)c(S(N)(=O)=O)c1-c1nn[nH]n1 [Example 209, (R)-4-(2-aminopyridin-3-yl)-N^1-(pyrrolidin-3-yl)-3-(2H-tetrazol-5-yl)benzene-1,2-disulfonamide] |  | 0.148 |  | 0.293 | 1.563 | 0.7813 | 1.563 | 1.172 | 1.33 | 3.1 |  |  |  | 0.177 |  |  | 
5 | NCc1nc2cc(-c3ccc(S(=O)(=O)NC[C@H](O)CN)c(S(N)(=O)=O)c3-c3nn[nH]n3)ccc2s1 [Example 463, (R)—N1-(3-amino-2-hydroxypropyl)-4-(2-(aminomethyl)benzo[d]thiazol-5-yl)-3-(2H-tetrazol-5-yl)benzene-1,2-disulfonamide] |  | 0.145 |  |  |  |  |  |  |  | 0.325 | 0.7813 | 1.563 | 0.7813 | 0.091 | 0.7813 | 0.7813 | 1.00
6 | NCc1nc2c(-c3ccc(S(=O)(=O)N[C@@H]4CCNC4)c(S(N)(=O)=O)c3-c3nn[nH]n3)cccc2s1 [Example 276, (R)-4-(2-(aminomethyl)benzo[d]thiazol-4-yl)-N1-(pyrrolidin-3-yl)-3-(2H-tetrazol-5-yl)benzene-1,2-disulfonamide] |  | 0.0561 | 0.0881 |  |  |  | 0.7813 | 0.7813 | 1.00 | 0.542 | 1.172 | 0.7813 | 0.7813 |  |  |  | 
7 | N[C@@H]1CNC[C@@H]1NS(=O)(=O)c1ccc(-c2cnc3cc[nH]c3c2)c(-c2nn[nH]n2)c1S(N)(=O)=O [Example 326, N1-((3S,4R)-4-aminopyrrolidin-3-yl)-4-(1H-pyrrolo[3,2-b]pyridin-6-yl)-3-(2H-tetrazol-5-yl)benzene-1,2-disulfonamide] |  | 0.0502 | 0.115 |  |  |  | 1.563 | 1.563 | 1.00 | 0.65 | 0.7813 | 1.563 | 1.563 |  |  |  | 
8 | C[C@H](N)CNS(=O)(=O)c1ccc(-c2ccc(N)nc2)c(-c2nn[nH]n2)c1S(N)(=O)=O [Example 479, (S)—N1-(2-aminopropyl)-4-(6-aminopyridin-3-yl)-3-(2H-tetrazol-5-yl) benzene-1,2-disulfonamide] |  | 0.224 |  |  |  |  |  |  |  | 0.664 | 0.1953 | 1.563 | 0.7813 | 0.299 | 0.7813 | 0.7813 | 1.00
9 | Nc1nc2c(-c3ccc(S(=O)(=O)NC[C@]4(N)CCNC4)c(S(N)(=O)=O)c3-c3nn[nH]n3)cccc2[nH]1 [Example 250, (S)-4-(2-amino-1H-benzo[d]imidazol-4-yl)-N1-((3-aminopyrrolidin-3-yl)methyl)-3-(2H-tetrazol-5-yl)benzene-1,2-disulfonamide] |  | 0.0335 |  |  |  |  | 0.7813 | 0.7813 | 1.00 | 0.513 | 0.3906 | 1.563 | 0.7813 | 0.2 |  |  | 
10 | NCCNS(=O)(=O)c1ccc(-c2cccc(SCC(N)CO)c2)c(-c2nn[nH]n2)c1S(N)(=O)=O (stereo not drawn) [Example 354, 3′-((2-amino-3-hydroxypropyl)thio)-N4-(2-aminoethyl)-2-(2H-tetrazol-5-yl)-[1,1′-biphenyl]-3,4-disulfonamide] |  | 0.817 |  |  |  |  | 1.563 | 0.3906 | 4.00 | 0.453 | 0.3906 | 0.7813 | 1.563 | 0.108 |  |  | 
11 | C[C@H](CCN)NS(=O)(=O)c1ccc(-c2cccc3[nH]c(N)nc23)c(-c2nn[nH]n2)c1S(N)(=O)=O [Example 266, (R)-4-(2-amino-1H-benzo[d]imidazol-4-yl)-N1-(4-aminobutan-2-yl)-3-(2H-tetrazol-5-yl)benzene-1,2-disulfonamide] |  | 0.0282 |  |  |  |  | 0.3906 | 0.7813 | 0.50 | 0.477 | 0.7813 | 0.7813 | 0.7813 | 0.115 |  |  | 
